# Tests used:
# Motilin receptor = Motilin receptor (Homo sapiens, UniProt O43193)
# [1] = target: T1, 5-hydroxytryptamine receptor 1A (Homo sapiens, UniProt P08908); assay type: functional, cell-based
# T1 sequence (P08908 whole entry): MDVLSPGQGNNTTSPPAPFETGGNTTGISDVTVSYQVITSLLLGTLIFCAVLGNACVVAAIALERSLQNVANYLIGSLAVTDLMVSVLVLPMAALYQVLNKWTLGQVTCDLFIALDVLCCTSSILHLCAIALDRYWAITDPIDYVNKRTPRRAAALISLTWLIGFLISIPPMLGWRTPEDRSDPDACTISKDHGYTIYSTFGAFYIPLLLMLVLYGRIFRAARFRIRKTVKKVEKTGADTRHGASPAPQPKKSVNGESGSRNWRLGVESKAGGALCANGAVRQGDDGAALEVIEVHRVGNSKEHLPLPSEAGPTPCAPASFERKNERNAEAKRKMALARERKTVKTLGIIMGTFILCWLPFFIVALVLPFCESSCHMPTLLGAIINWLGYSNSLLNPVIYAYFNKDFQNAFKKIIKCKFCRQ
# Progesterone receptor = target: T2, Progesterone receptor (Homo sapiens, UniProt P06401); assay type: functional
# T2 sequence (P06401 whole entry): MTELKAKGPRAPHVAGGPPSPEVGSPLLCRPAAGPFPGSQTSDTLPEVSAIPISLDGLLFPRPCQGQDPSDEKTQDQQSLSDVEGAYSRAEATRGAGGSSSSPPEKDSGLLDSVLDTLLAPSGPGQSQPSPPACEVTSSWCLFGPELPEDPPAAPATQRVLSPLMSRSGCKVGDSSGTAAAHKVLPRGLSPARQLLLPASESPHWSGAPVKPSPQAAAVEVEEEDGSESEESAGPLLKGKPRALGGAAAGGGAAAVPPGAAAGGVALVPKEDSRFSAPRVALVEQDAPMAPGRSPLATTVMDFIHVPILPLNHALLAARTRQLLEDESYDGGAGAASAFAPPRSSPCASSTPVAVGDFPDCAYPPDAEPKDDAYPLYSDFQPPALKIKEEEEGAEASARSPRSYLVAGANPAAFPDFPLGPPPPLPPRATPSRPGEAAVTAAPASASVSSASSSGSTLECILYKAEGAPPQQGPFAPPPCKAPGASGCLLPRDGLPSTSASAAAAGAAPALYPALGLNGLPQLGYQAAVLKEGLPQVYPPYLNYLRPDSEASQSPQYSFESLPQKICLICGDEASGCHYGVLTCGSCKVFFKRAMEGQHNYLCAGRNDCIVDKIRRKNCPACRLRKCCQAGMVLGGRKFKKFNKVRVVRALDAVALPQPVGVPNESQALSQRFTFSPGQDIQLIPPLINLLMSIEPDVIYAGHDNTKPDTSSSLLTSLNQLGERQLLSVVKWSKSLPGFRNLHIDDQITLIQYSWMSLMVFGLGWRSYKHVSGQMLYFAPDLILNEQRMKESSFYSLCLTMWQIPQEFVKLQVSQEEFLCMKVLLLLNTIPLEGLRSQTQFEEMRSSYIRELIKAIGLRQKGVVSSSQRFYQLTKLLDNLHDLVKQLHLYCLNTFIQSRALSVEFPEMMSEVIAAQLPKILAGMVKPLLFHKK
# Estrogen receptor = target: T3, Estrogen receptor (Homo sapiens, UniProt P03372)
# T3 sequence (P03372 whole entry): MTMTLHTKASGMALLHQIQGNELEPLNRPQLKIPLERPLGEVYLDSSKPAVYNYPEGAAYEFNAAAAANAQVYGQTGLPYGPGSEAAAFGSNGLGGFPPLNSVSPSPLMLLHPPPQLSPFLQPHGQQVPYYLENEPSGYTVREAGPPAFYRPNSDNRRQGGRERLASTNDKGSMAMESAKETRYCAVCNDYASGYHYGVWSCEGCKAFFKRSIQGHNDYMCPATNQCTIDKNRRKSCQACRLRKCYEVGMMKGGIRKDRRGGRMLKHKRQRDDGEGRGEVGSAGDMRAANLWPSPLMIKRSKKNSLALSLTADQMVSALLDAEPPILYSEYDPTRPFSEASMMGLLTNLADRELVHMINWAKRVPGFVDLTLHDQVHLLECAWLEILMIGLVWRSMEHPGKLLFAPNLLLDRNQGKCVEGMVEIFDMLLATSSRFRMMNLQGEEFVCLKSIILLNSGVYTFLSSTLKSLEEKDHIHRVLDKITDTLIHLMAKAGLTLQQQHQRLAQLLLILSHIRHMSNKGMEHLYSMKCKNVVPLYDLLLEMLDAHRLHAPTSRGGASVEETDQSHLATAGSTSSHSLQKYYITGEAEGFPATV
# B2 bradykinin receptor = target: T4, B2 bradykinin receptor (Homo sapiens, UniProt P30411)
# T4 sequence (P30411 whole entry): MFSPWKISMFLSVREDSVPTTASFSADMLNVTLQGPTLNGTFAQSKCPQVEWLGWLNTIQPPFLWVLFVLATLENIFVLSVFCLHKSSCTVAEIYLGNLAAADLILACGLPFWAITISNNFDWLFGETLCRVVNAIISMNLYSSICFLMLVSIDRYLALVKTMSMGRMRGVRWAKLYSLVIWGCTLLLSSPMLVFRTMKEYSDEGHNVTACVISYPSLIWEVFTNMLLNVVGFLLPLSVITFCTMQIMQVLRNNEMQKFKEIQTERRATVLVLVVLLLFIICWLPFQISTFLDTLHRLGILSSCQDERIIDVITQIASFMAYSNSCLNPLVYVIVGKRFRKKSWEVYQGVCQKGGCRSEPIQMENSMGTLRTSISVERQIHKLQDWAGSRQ
# Vasopressin V2 receptor = Vasopressin V2 receptor (Homo sapiens, UniProt P30518)
# Vasopressin V2 receptor, sequence (P30518 whole entry): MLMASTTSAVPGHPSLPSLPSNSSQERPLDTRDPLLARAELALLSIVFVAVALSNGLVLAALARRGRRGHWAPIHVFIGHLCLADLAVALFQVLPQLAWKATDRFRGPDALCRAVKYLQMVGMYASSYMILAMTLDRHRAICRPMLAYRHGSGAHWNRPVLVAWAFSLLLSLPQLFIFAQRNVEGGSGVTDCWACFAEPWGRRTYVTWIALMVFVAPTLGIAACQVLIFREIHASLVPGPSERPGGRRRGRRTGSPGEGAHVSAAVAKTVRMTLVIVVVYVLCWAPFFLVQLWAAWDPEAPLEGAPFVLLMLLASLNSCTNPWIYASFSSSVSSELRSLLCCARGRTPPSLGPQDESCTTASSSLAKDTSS
# Note: assay procedure not described here.
# Motilin receptor, sequence (O43193 whole entry): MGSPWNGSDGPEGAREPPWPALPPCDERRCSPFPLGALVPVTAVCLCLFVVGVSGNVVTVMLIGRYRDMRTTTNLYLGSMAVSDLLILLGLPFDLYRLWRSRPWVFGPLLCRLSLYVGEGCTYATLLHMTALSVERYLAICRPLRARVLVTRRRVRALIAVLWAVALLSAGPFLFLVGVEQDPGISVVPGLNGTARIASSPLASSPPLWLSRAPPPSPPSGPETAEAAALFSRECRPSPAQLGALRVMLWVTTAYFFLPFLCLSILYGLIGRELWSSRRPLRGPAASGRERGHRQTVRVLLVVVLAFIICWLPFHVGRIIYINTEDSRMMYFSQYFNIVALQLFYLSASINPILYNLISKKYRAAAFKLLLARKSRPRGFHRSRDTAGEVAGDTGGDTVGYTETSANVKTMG
SMILES,AC50 (Motilin receptor),AC50 [1],AC50 (Progesterone receptor),AC50 (Estrogen receptor),AC50 (B2 bradykinin receptor),AC50 (Vasopressin V2 receptor)
CC(=N)N1CC[C@H](SC2=C(C(=O)O)N3C(=O)[C@H]([C@@H](C)O)[C@H]3C2)C1,> 300 µM,> 300 µM,> 300 µM,–,–,–
CN(C)CCCN1C(=O)c2cc([N+](=O)[O-])ccc2Oc2ccccc21,–,–,–,> 30 µM,–,–
CC(/C=C1\SC(=S)N(CC(=O)O)C1=O)=C\c1ccccc1,> 30 µM,21 µM,> 30 µM,–,> 10 µM,> 30 µM
O=S(=O)(O)CCS [2-MERCAPTOETHANESULFONIC ACID],–,–,–,> 30 µM,–,–
O=C1CN2Cc3c(ccc(Cl)c3Cl)N=C2N1 [ANAGRELIDE],> 10 µM,–,–,–,> 30 µM,> 30 µM
CNCC[C@@H](Oc1ccccc1C)c1ccccc1 [ATOMOXETINE],> 30 µM,–,> 30 µM,–,> 30 µM,> 30 µM
O=C(O)COc1nn(Cc2ccccc2)c2ccccc12 [BENDAZAC],–,–,–,> 30 µM,–,–
CCc1oc2ccccc2c1C(=O)c1cc(Br)c(O)c(Br)c1 [BENZBROMARONE],> 30 µM,> 30 µM,3.8 µM,–,> 30 µM,> 30 µM
C=C(C)[C@@H]1CCC(C)=C[C@H]1c1c(O)cc(CCCCC)cc1O [CANNABIDIOL],20.5 µM,> 10 µM,> 10 µM,–,–,–
CO/N=C(\C(=O)N[C@@H]1C(=O)N2C(C(=O)O)=C(COC(N)=O)CS[C@H]12)c1ccco1 [CEFUROXIME],> 30 µM,> 30 µM,–,–,> 30 µM,> 30 µM
O=C(O)CCCc1ccc(N(CCCl)CCCl)cc1 [CHLORAMBUCIL],–,–,–,> 30 µM,–,–
[H]/N=C(\N/C(=N/[H])NCCCCCCNC(=N)NC(=N)Nc1ccc(Cl)cc1)Nc1ccc(Cl)cc1 [CHLORHEXIDINE],0.784 µM,8.3 µM,21.9 µM,–,–,3.9 µM
CN(CC(=O)O)C(=N)N [CREATINE],–,–,–,> 30 µM,–,–
CNCC[C@H](Oc1cccc2ccccc12)c1cccs1 [DULOXETINE],5.3 µM,–,–,–,> 30 µM,> 30 µM
Cn1c(=O)c2c(ncn2CC(O)CO)n(C)c1=O (centres undefined) [DYPHYLLINE],–,–,–,> 30 µM,–,–
C#Cc1cccc(Nc2ncnc3cc(OCCOC)c(OCCOC)cc23)c1 [ERLOTINIB],> 30 µM,> 30 µM,> 30 µM,> 30 µM,–,–
CC1(C)O[C@@H]2C[C@H]3[C@@H]4C[C@H](F)C5=CC(=O)C=C[C@]5(C)[C@H]4[C@@H](O)C[C@]3(C)[C@]2(C(=O)CO)O1 [FLUNISOLIDE],> 30 µM,0.56 µM,> 3 µM,–,–,–
Nc1nc(O)c2ncn(COC(CO)CO)c2n1 [GANCICLOVIR],> 30 µM,> 30 µM,> 30 µM,–,> 30 µM,> 30 µM
C[C@H]1Oc2cc(cnc2N)-c2c(nn(C)c2C#N)CN(C)C(=O)c2ccc(F)cc21 [LORLATINIB],> 30 µM,6.2 µM,> 30 µM,–,–,–
Cc1cc2c(OCC(O)CNC(C)C)cccc2[nH]1 (centres undefined) [MEPINDOLOL],–,–,–,> 30 µM,–,–
CC[C@@H](CO)NC(=O)[C@@H]1C=C2c3cccc4[nH]cc(c34)C[C@H]2N(C)C1 [METHYLERGONOVINE],> 30 µM,–,–,–,> 30 µM,> 30 µM

SMILES,AC50 (Motilin receptor),AC50 [1],AC50 (Progesterone receptor),AC50 (Estrogen receptor),AC50 (B2 bradykinin receptor),AC50 (Vasopressin V2 receptor)
CCOc1cc(N)c(Cl)cc1C(=O)NCC1CN(Cc2ccc(F)cc2)CCO1 (centres undefined) [MOSAPRIDE],–,–,–,> 30 µM,–,–
CCOc1ccc2ccccc2c1C(=O)N[C@@H]1C(=O)N2[C@@H]1SC(C)(C)[C@@H]2C(=O)O [NAFCILLIN],–,–,–,> 30 µM,–,–
CN1CCC[C@H]1c1cccnc1 [NICOTINE],–,–,–,> 30 µM,–,–
CC(=O)Oc1ccccc1C(=O)Nc1ncc([N+](=O)[O-])s1 [NITAZOXANIDE],13 µM,–,> 30 µM,> 30 µM,4.9 µM,14 µM
CNCCC=C1c2ccccc2CCc2ccccc21 [NORTRIPTYLINE],> 30 µM,8 µM,> 30 µM,–,> 30 µM,> 30 µM
CCCCCCCCCCC[C@@H](C[C@@H]1OC(=O)[C@H]1CCCCCC)OC(=O)[C@H](CC(C)C)NC=O [ORLISTAT],–,–,–,> 30 µM,–,–
COc1ccc(Cc2nccc3cc(OC)c(OC)cc23)cc1OC [PAPAVERINE],> 30 µM,–,> 30 µM,–,> 30 µM,> 30 µM
O=C1[C@H]2CCCC[C@H]2C(=O)N1CCCCN1CCN(c2nsc3ccccc23)CC1 [PEROSPIRONE],–,–,–,> 30 µM,–,–
CC(C)(C)C(=O)NCCCC(=O)O [PIVAGABINE],–,–,–,> 30 µM,–,–
CC(C)[N+](C)(CCOC(=O)C1c2ccccc2Oc2ccccc21)C(C)C [PROPANTHELINE],–,–,–,> 30 µM,–,–
CCOc1cc(CC(=O)N[C@@H](CC(C)C)c2ccccc2N2CCCCC2)ccc1C(=O)O [REPAGLINIDE],> 30 µM,> 30 µM,> 30 µM,–,–,–
NC(=O)c1ncn([C@@H]2O[C@H](CO)[C@@H](O)[C@H]2O)n1 [RIBAVIRIN],> 10 µM,–,> 10 µM,–,> 10 µM,> 10 µM
CN(C)C(=O)c1nc(CNC(=O)CN)n(-c2ccc(Cl)cc2C(=O)c2ccccc2Cl)n1 [RILMAZAFONE],–,–,–,> 30 µM,–,–
O=C(Nc1c(Cl)cncc1Cl)c1ccc(OC(F)F)c(OCC2CC2)c1 [ROFLUMILAST],> 30 µM,–,–,–,> 30 µM,> 30 µM
CCCN(CCc1cccs1)[C@H]1CCc2c(O)cccc2C1 [ROTIGOTINE],> 30 µM,0.67 µM,> 30 µM,–,–,–
CC[C@H]1OC(=O)[C@H](C)[C@@H](O[C@H]2C[C@@](C)(OC)[C@@H](O)[C@H](C)O2)[C@H](C)[C@@H](O[C@@H]2O[C@H](C)C[C@H](N(C)C)[C@H]2O)[C@](C)(O)C[C@@H](C)/C(=N\OCOCCOC)[C@H](C)[C@@H](O)[C@]1(C)O [ROXITHROMYCIN],9 µM,> 30 µM,> 30 µM,–,–,–
CC(C)N(CCCCOCC(=O)NS(C)(=O)=O)c1cnc(-c2ccccc2)c(-c2ccccc2)n1 [SELEXIPAG],> 30 µM,24 µM,> 30 µM,–,> 10 µM,> 30 µM
NC(=O)NS(=O)(=O)c1ccc(N)cc1 [SULFACARBAMIDE],–,–,–,> 30 µM,–,–
CCCCCCCCNC(C)C(O)c1ccc(SC(C)C)cc1 (centres undefined) [SULOCTIDIL],–,–,–,16.7 µM,–,–
Cc1cc(CC(=O)O)n(C)c1C(=O)c1ccc(Cl)cc1 [ZOMEPIRAC],> 30 µM,> 30 µM,> 30 µM,–,> 30 µM,> 30 µM

# — ChEMBL document CHEMBL5291721, “A preclinical secondary pharmacology resource illuminates target-adverse drug reaction associations of marketed drugs” (Nat Commun, 2023)
